According to ChEMBL document CHEMBL5465560, “Selectivity Literature for EUbOPEN Chemogenomic Library” (2024):

Experiments:
[1] = molecular target: Tyrosine-protein kinase Fgr (Homo sapiens) (UniProt P09769); experiment: Selectivity interaction (Millipore kinase profiler) EUB0000124b FGR; settings: at 10 µM
[2] = molecular target: Serine/threonine-protein kinase 38 (Homo sapiens) (UniProt Q15208); experiment: Selectivity interaction (KinomeScan (DiscoverX)) EUB0001079a STK38; settings: at 1 µM
[3] = molecular target: Serine/threonine-protein kinase 16 (Homo sapiens, UniProt O75716); experiment: Selectivity interaction (KinomeScan (DiscoverX)) EUB0001079a STK16; settings: at 1 µM
SRSF protein kinase 1 = SRSF protein kinase 1 (Homo sapiens, UniProt Q96SB4); experiment: Selectivity interaction (ActivX KiNativ screen (kinase selectivity in THP-1 cell lysates)) EUB0000639a SRPK1; format: subcellular; settings: lysate, at 0.2 µM
[4] = molecular target: 5'-AMP-activated protein kinase catalytic subunit alpha-1 (Homo sapiens, UniProt Q13131); experiment: Selectivity interaction (ActivX KiNativ screen (kinase selectivity in THP-1 cell lysates)) EUB0000639a PRKAA1; format: subcellular; settings: lysate, at 0.2 µM
[5] = molecular target: Casein kinase II subunit alpha (Homo sapiens, UniProt P68400); settings: at 10 µM
[6] = molecular target: T1, TGF-beta receptor type-1 (Homo sapiens) (UniProt P36897); experiment: Selectivity interaction (KinomeScan (DiscoverX)) EUB0000092b TGFBR1; settings: at 10 µM
T1 sequence (whole entry): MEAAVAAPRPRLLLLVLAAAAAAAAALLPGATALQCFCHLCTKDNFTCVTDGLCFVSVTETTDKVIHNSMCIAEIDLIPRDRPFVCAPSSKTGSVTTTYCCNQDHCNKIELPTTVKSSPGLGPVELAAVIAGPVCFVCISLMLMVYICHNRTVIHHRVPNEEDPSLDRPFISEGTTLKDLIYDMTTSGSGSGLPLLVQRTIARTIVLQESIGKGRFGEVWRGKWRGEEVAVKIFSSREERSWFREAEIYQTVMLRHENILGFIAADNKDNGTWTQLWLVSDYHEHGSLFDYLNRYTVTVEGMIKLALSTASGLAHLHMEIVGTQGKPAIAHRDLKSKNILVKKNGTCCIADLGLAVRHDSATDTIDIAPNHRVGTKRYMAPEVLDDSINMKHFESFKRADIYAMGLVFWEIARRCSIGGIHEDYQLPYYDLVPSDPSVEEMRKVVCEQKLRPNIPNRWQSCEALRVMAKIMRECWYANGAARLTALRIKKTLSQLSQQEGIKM

[7] = test system: Mast/stem cell growth factor receptor Kit (Homo sapiens), P10721 [D816V]; experiment: (§1) Selectivity interaction (KinomeScan (DiscoverX)) EUB0000618a KIT; settings: at 10 µM
[8] = test system: Mast/stem cell growth factor receptor Kit (Homo sapiens), P10721 [L576P]; experiment: as §1; settings: at 10 µM
[9] = molecular target: Mast/stem cell growth factor receptor Kit (Homo sapiens, UniProt P10721); experiment: as §1; settings: at 10 µM
[10] = test system: Mast/stem cell growth factor receptor Kit (Homo sapiens), P10721 [V559D,V654A]; experiment: as §1; settings: at 10 µM
[11] = test system: Mast/stem cell growth factor receptor Kit (Homo sapiens), P10721 [A829P]; experiment: as §1; settings: at 10 µM
[12] = molecular target: Ribosomal protein S6 kinase alpha-3 (Homo sapiens, UniProt P51812); experiment: Selectivity interaction (ActivX KiNativ screen (ex vivo kinase selectivity in human PBMCs)) EUB0001619a RPS6KA3; format: cell-based; settings: PBMC, at 1 µM
[13] = molecular target: Phosphatidylinositol 4-kinase beta (Homo sapiens, UniProt Q9UBF8); experiment: Selectivity interaction (KinomeScan (DiscoverX)) EUB0000695a PI4KB; settings: at 100 nM
[14] = molecular target: LIM domain kinase 2 (Homo sapiens) (UniProt P53671); experiment: Selectivity interaction (KinomeScan (DiscoverX)) EUB0000695a LIMK2; settings: at 100 nM
[15] = molecular target: Vascular endothelial growth factor receptor 2 (Homo sapiens, UniProt P35968); experiment: Selectivity interaction (KinomeScan (DiscoverX)) EUB0000607a KDR; settings: at 10 µM
[16] = molecular target: Tyrosine-protein kinase ABL1 (Homo sapiens, UniProt P00519); experiment: (§2) Selectivity interaction (SelectScreen profiling (Invitrogen)) EUB0000607a ABL1; settings: at 2 µM
[17] = test system: Tyrosine-protein kinase ABL1 (Homo sapiens), P00519 [G250E]; experiment: as §2; settings: at 2 µM
[18] = test system: Tyrosine-protein kinase ABL1 (Homo sapiens), P00519 [Y253F]; experiment: as §2; settings: at 2 µM
[19] = test system: Tyrosine-protein kinase ABL1 (Homo sapiens), P00519 [E255K]; experiment: as §2; settings: at 2 µM
[20] = test system: Tyrosine-protein kinase ABL1 (Homo sapiens), P00519 [T315I]; experiment: as §2; settings: at 2 µM
[21] = molecular target: T2, Serine/threonine-protein kinase RIO3 (Homo sapiens) (UniProt O14730); experiment: Selectivity interaction (KinomeScan (DiscoverX)) EUB0001868a RIOK3; settings: at 1 µM
T2 sequence (whole entry): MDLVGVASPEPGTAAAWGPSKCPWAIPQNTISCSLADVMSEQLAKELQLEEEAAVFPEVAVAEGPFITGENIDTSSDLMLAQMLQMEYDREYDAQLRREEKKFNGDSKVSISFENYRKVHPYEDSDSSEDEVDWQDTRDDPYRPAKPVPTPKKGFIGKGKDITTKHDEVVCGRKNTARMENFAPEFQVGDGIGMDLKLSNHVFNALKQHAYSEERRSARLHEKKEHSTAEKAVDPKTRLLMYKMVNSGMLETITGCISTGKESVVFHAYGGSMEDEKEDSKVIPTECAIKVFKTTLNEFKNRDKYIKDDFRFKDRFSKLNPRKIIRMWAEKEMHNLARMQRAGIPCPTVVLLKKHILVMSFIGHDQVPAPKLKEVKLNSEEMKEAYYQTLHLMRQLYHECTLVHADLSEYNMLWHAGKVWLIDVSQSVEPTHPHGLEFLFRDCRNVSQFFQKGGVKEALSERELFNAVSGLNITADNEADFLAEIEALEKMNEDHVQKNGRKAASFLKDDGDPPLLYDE

Sequence of Mast/stem cell growth factor receptor Kit (P10721 whole entry): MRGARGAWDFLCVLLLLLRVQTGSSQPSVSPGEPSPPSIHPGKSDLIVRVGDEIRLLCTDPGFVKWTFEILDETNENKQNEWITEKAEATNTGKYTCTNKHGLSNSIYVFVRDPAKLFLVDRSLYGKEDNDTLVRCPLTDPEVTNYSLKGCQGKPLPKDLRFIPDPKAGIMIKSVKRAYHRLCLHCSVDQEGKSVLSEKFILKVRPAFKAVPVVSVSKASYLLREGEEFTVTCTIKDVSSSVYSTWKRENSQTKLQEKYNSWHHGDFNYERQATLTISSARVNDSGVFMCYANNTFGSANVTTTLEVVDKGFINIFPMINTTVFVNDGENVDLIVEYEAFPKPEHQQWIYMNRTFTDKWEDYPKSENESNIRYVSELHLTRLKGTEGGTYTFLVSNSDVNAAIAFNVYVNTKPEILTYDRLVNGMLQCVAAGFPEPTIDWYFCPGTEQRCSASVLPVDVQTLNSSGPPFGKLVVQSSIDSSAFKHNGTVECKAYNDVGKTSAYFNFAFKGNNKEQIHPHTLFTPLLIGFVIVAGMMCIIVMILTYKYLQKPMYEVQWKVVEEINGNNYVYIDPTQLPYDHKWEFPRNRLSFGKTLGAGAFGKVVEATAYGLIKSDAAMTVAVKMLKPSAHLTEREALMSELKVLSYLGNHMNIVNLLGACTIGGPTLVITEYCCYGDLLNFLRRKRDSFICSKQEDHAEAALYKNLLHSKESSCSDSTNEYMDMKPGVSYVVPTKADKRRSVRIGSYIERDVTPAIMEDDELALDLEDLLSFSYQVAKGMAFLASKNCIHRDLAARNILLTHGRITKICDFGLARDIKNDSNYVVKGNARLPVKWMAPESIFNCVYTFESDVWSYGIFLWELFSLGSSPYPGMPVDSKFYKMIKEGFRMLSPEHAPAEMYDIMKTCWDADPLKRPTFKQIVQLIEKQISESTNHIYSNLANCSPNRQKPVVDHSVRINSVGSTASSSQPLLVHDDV
Sequence of Phosphatidylinositol 4-kinase beta (Q9UBF8 2-816 limits assumed): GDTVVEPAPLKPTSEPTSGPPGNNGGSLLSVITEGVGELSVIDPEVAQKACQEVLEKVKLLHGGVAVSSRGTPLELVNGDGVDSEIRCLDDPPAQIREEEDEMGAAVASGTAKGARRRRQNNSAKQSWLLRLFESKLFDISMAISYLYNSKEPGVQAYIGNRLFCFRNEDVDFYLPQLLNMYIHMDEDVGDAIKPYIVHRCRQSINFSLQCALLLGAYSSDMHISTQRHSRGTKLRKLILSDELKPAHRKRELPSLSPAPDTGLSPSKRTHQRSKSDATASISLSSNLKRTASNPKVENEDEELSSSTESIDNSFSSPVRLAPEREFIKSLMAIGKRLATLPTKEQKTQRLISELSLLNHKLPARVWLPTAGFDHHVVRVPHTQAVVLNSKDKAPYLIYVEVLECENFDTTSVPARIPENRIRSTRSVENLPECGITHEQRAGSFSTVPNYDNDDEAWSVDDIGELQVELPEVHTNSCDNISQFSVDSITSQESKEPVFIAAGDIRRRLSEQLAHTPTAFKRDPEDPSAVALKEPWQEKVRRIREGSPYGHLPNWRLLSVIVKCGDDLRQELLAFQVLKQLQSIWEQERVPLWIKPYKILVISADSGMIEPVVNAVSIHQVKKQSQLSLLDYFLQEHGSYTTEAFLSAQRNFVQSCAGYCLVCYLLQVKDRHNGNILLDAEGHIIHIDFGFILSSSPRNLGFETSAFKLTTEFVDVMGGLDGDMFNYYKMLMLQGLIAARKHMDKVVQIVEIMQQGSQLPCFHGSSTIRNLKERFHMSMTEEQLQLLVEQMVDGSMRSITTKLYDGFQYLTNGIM
Sequence of Mast/stem cell growth factor receptor Kit (Homo sapiens), P10721 [L576P] (P10721 whole entry L576P): as the sequence (P10721 whole entry) above, with L576P counted along it
Sequence of Mast/stem cell growth factor receptor Kit (Homo sapiens), P10721 [V559D,V654A] (P10721 whole entry V559D/V654A): as the sequence (P10721 whole entry) above, with V559D, V654A counted along it
Sequence of Serine/threonine-protein kinase 38 (Homo sapiens) (Q15208 2-465 limits assumed): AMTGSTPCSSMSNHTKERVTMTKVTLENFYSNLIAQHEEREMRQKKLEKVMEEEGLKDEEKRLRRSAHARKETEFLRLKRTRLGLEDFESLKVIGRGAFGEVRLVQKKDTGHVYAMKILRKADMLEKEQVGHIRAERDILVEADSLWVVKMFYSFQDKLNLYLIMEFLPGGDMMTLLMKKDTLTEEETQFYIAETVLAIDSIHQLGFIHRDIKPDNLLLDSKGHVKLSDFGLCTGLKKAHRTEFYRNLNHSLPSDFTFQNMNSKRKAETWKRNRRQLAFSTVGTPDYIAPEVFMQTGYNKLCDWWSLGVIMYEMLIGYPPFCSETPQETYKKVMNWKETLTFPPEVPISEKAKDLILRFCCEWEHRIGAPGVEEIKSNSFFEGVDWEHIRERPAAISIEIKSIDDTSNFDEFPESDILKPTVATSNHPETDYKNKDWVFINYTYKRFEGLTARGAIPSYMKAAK
Sequence of Ribosomal protein S6 kinase alpha-3 (P51812 whole entry): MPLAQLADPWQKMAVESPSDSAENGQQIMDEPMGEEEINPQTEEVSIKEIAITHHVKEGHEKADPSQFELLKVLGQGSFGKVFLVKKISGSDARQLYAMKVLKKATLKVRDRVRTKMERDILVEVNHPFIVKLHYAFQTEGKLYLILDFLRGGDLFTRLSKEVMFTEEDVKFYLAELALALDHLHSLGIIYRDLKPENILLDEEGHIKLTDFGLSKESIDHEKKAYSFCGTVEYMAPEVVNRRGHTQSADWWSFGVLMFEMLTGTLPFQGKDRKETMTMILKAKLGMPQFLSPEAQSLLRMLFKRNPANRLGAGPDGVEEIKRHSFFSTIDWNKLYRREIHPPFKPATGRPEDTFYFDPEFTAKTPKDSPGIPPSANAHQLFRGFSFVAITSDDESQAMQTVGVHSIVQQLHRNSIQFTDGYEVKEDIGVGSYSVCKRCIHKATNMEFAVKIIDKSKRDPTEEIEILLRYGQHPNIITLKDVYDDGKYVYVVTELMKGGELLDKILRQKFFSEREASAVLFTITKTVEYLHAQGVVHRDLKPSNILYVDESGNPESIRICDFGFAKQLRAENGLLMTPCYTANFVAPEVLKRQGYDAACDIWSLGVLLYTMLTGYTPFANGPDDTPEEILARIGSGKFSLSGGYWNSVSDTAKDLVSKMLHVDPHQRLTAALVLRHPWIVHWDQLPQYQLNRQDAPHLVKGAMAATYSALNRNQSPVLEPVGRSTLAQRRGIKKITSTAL

CC(=O)Nc1cccc(-n2c(=O)n(C3CC3)c(=O)c3c(Nc4ccc(I)cc4F)n(C)c(=O)c(C)c32)c1
% of control [1]: 86%

Nc1cnc(N2CCc3cc(S(=O)(=O)Nc4c(F)cc(Cl)cc4F)cc(N4CCCC4=O)c32)nc1 [TP-020n]
% of control [2]: 99% | % of control [3]: 100%

CC[C@@H]1[C@H](F)C(=O)N[C@@H]1COc1nccc2cc(C(N)=O)c(OC)cc12 [ZIMLOVISERTIB]
% of inhibition (SRSF protein kinase 1): 0.5% | % of inhibition [4]: 8.7%

COCC(=O)NC/C=C/c1ccc2ncnc(Nc3ccc(Oc4ccc(C)nc4)c(C)c3)c2c1 [CP-724714]
% of control [5]: 87%

CCC(=O)N1CCN(c2ccc(-n3c(=O)ccc4cnc5ccc(-c6cnc7ccccc7c6)cc5c43)cc2C(F)(F)F)CC1
% of control [6]: 70%

O[C@H]1CC[C@H](Nc2ncc3nc(Nc4c(F)cc(F)cc4F)n([C@H]4CCOC4)c3n2)CC1
% of control [7]: 84% | % of control [8]: 95% | % of control [9]: 96% | % of control [10]: 68% | % of control [11]: 77%

N#Cc1cccc(-c2c[nH]c3ncnc(N4CCOCC4)c23)c1
% of inhibition [12]: -3%

Cc1cc(F)c(C(=O)Nc2cccc(-c3nncn3C(C)C)n2)cc1-n1cnc(C2CC2)c1
% of control [13]: 100% | % of control [14]: 89%

CNC(=O)Nc1ccc(-c2nc(N3CC4CCC(C3)O4)c3cnn(C4CCC5(CC4)OCCO5)c3n2)cc1
% of control [15]: 76% | % of inhibition [16]: 4% | % of inhibition [17]: 3% | % of inhibition [18]: 0% | % of inhibition [19]: 5% | % of inhibition [20]: 0%

Cc1cc(-c2ccnc(Nc3cnn(C)c3)n2)ccc1CNC(=O)N1CC(OC(C)C)C1
% of control [21]: 19%
